Test results reported in patent EP4745137A1 (Gluetacs Therapeutics (Shanghai) Co., Ltd., priority 2023, dated 2025).

What was measured:
[1] = target: T1, IKZF1 (Homo sapiens, UniProt Q13422+Q96SW2); assay: Western-blot assay of substrate protein degradation in hPBMCs, IKZF1; type: cell-based; settings: 24 hours of compound treatment
T1 construct: endogenous in cells; host or cells: hPBMCs (Milecell Biotechnologies)

[2] = target: T2, GSPT1 (Homo sapiens, UniProt P15170+Q96SW2); assay: Western-blot assay of substrate protein degradation in hPBMCs, GSPT1; type: cell-based; settings: 24 hours of compound treatment
T2 construct: endogenous in cells; host or cells: hPBMCs (Milecell Biotechnologies)
T2 sequence (P15170 whole entry): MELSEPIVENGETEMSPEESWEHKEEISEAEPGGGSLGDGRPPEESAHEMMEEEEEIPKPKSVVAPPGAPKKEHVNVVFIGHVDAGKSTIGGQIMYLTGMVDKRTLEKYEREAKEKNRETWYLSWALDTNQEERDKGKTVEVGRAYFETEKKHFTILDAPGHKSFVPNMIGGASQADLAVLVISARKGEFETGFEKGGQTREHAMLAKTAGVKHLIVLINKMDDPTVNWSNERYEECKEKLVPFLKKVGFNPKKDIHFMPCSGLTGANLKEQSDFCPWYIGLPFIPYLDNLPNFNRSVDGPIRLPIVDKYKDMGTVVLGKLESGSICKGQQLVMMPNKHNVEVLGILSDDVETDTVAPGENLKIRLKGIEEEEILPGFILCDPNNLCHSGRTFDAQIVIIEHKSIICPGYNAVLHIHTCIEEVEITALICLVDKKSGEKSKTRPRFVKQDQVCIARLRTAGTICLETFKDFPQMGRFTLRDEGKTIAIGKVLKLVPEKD
T2 sequence (Q96SW2 whole entry): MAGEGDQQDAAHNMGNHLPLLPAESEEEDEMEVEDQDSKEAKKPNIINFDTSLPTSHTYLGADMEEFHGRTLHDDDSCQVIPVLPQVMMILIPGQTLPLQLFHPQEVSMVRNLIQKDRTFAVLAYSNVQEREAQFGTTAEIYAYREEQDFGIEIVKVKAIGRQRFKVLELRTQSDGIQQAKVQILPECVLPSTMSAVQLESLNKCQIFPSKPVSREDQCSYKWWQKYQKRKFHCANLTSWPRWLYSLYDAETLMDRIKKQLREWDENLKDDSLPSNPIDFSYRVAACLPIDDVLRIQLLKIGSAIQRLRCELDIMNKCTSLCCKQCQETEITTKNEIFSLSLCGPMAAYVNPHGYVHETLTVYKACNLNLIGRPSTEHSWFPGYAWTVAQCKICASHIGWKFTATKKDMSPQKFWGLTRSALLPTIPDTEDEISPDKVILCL
T2 sequence (Q16531 whole entry partner): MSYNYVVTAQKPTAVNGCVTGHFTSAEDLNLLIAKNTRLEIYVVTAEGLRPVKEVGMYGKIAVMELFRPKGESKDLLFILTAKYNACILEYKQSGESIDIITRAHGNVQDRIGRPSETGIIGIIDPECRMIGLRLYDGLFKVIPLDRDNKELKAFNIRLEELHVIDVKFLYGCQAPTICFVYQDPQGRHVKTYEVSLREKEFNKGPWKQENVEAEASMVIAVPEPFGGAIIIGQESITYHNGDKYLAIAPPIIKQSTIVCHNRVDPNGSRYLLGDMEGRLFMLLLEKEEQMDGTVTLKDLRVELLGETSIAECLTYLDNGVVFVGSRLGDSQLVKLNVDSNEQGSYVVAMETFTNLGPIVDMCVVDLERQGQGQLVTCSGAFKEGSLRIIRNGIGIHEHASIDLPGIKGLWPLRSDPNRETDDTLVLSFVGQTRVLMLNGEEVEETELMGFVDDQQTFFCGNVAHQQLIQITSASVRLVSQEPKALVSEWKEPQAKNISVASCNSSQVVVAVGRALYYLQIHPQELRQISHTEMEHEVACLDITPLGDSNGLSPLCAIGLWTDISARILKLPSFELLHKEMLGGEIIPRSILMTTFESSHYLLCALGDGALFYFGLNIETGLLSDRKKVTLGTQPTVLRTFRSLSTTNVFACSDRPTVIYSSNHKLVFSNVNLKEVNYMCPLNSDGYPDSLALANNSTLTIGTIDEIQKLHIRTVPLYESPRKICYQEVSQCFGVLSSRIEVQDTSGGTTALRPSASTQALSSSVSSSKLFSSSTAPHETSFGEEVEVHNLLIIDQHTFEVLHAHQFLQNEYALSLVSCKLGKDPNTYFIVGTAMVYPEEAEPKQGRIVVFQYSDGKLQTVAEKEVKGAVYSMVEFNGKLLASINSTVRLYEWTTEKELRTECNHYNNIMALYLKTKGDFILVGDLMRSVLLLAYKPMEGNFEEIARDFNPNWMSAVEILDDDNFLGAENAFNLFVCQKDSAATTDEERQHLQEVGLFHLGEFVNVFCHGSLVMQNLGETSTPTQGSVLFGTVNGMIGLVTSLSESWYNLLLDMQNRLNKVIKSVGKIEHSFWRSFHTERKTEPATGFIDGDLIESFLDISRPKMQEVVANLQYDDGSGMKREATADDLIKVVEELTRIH

[3] = target: T3, human Cereblon WT GST-tagged protein (Homo sapiens, UniProt Q96SW2); assay: CRBN-binding affinity by HTRF (CEREBLON BINDING kit); settings: HTRF inhibitory activity, CEREBLON BINDING kit; read-out: HTRF IC50
T3 construct: purchased CISBIO 64BDCRBNPEH
T3 sequence (Q96SW2 whole entry): as the sequence (Q96SW2 whole entry) above

[4] = target: T4, IKZF3 (Homo sapiens, UniProt Q96SW2+Q9UKT9); assay: Western-blot assay of substrate protein degradation in hPBMCs, IKZF3; type: cell-based; settings: 24 hours of compound treatment
T4 construct: endogenous in cells; host or cells: hPBMCs (Milecell Biotechnologies)
T4 sequence (Q9UKT9 whole entry): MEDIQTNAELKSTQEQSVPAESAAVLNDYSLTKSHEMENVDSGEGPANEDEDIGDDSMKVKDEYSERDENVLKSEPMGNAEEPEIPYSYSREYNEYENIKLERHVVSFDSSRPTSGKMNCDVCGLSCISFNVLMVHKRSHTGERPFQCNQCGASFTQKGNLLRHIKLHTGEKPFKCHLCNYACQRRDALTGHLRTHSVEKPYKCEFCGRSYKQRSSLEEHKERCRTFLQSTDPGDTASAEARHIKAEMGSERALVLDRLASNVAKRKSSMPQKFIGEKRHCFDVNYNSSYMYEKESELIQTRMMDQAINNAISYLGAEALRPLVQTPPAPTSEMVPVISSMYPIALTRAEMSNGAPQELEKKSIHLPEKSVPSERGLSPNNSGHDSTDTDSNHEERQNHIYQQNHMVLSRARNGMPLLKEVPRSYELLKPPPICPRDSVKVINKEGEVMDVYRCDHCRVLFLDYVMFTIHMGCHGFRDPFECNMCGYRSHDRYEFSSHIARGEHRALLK
T4 sequence (Q96SW2 whole entry): as the sequence (Q96SW2 whole entry) above
T4 sequence (Q16531 whole entry partner): as the sequence (Q16531 whole entry partner) above

[5] = target: T5, IKZF2 (Homo sapiens, UniProt Q96SW2+Q9UKS7); assay: Western-blot assay of substrate protein degradation in hPBMCs, IKZF2; type: cell-based; settings: 24 hours of compound treatment
T5 construct: endogenous in cells; host or cells: hPBMCs (Milecell Biotechnologies)

[6] = target: T6, WEE1 (Homo sapiens, UniProt P30291+Q96SW2); assay: Western-blot assay of substrate protein degradation in hPBMCs, WEE1; type: cell-based; settings: 24 hours of compound treatment
T6 construct: endogenous in cells; host or cells: hPBMCs (Milecell Biotechnologies)
T6 sequence (P30291 whole entry): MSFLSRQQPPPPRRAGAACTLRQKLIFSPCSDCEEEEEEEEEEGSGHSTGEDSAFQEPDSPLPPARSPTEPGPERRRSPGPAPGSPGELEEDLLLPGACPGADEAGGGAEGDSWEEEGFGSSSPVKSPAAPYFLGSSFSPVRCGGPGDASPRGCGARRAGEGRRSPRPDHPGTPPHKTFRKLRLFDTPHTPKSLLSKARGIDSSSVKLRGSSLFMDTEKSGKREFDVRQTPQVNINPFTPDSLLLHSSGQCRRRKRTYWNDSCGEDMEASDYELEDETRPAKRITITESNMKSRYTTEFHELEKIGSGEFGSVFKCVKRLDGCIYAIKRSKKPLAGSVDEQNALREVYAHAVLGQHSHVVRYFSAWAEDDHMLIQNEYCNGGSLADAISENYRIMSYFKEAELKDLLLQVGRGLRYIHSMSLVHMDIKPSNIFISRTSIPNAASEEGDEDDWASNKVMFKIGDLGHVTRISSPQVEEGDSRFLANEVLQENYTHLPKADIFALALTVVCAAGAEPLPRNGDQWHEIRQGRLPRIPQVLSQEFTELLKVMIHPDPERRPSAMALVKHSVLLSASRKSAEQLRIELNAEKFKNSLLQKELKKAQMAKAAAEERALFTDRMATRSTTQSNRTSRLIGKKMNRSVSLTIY
T6 sequence (Q96SW2 whole entry): as the sequence (Q96SW2 whole entry) above
T6 sequence (Q16531 whole entry partner): as the sequence (Q16531 whole entry partner) above

[7] = target: T7, CK1α (Homo sapiens, UniProt P48729+Q96SW2); assay: Western-blot assay of substrate protein degradation in hPBMCs, CK1α; type: cell-based; settings: 24 hours of compound treatment
T7 construct: endogenous in cells; host or cells: hPBMCs (Milecell Biotechnologies)
T7 sequence (P48729 whole entry): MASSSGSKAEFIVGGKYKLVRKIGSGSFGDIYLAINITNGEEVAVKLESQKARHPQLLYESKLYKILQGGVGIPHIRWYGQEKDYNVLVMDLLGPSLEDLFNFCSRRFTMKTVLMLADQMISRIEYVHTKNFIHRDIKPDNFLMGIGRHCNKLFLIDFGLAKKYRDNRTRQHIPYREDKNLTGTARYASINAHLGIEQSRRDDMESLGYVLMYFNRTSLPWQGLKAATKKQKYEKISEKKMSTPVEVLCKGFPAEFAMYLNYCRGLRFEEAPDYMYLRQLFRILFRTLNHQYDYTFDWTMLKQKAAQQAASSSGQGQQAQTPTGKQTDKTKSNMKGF
T7 sequence (Q96SW2 whole entry): as the sequence (Q96SW2 whole entry) above
T7 sequence (Q16531 whole entry partner): as the sequence (Q16531 whole entry partner) above

[8] = compounds tested at 50 nM and 500 nM (concentration of the table not stated)
[9] = 50 nM and 500 nM tested (concentration behind the class not stated)

T1 sequence (Q13422 whole entry): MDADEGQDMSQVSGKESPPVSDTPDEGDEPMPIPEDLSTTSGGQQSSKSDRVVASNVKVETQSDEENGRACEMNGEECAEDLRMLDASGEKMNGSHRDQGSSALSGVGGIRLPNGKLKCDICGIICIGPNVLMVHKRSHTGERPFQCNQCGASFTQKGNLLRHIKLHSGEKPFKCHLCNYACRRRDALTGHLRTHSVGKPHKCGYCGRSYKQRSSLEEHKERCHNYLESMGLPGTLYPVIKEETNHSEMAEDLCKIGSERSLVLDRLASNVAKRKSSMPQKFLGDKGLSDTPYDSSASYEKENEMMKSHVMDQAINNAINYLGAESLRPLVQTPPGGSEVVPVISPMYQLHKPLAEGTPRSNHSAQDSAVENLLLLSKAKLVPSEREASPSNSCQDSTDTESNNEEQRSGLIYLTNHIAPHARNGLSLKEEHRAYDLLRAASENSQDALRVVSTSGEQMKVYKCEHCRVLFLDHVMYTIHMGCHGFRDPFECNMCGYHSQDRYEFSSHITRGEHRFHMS
T1 sequence (Q96SW2 whole entry): as the sequence (Q96SW2 whole entry) above
T1 sequence (Q16531 whole entry partner): as the sequence (Q16531 whole entry partner) above

In the case of Cc1nc(N2CCN(Cc3ccc4c(c3)CN(C3CCC(=O)NC3=O)C4=O)CC2)c2c3c(sc2n1)CCC3 (stereo not drawn) [GT-05157, 3-(5-((4-(2-methyl-6,7-dihydro-5H-cyclopenta[4,5]thieno[2,3-d]pyrimidin-4-yl)piperazin-1-yl)methyl)-1-oxoisoindolin-2-yl)piperidine-2,6-dione], the “IKZF 1 substrate protein remaining %” value [1, 8] is reported as “A (0% ≤ substrate protein remaining % ≤ 80%)”, the “GSPT1 substrate protein remaining %” value [2, 8] is reported as “A (0% ≤ substrate protein remaining % ≤ 80%)” and the IC50 [3] is reported as under 500 nM. The “IKZF3 substrate protein remaining %” value [4, 8] was “A (0% ≤ substrate protein remaining % ≤ 80%)”, the “IKZF2 substrate protein remaining %” value [5, 8] was “A (0% ≤ substrate protein remaining % ≤ 80%)” and the “Weel substrate protein remaining %” value [6, 8] was “B (80%< substrate protein remaining %≤ 100%)”. The “CK1a substrate protein remaining %” value [7, 8] was “A (0% ≤ substrate protein remaining % ≤ 80%)”.
For Cc1nc(C2CCN(Cc3ccc4c(c3)CN(C3CCC(=O)NC3=O)C4=O)CC2)c2c(-c3ccccc3)csc2n1 (stereo not drawn) [GT-05158, 3-(5-((4-(2-methyl-5-phenylthieno[2,3-d]pyrimidin-4-yl)piperidin-1-yl)methyl)-1-oxoisoindolin-2-yl)piperidine-2,6-dione], the “IKZF 1 substrate protein remaining %” value [1, 8] was “B (80%< substrate protein remaining %≤ 100%)”, the “GSPT1 substrate protein remaining %” value [2, 8] was “A (0% ≤ substrate protein remaining % ≤ 80%)” and the IC50 [3] was under 500 nM. The “IKZF3 substrate protein remaining %” value [4, 8] was “A (0% ≤ substrate protein remaining % ≤ 80%)”, the “IKZF2 substrate protein remaining %” value [5, 8] was “A (0% ≤ substrate protein remaining % ≤ 80%)” and the “Weel substrate protein remaining %” value [6, 8] was “B (80%< substrate protein remaining %≤ 100%)”. The “CK1a substrate protein remaining %” value [7, 8] was “B (80%< substrate protein remaining %≤ 100%)”.
O=C1CCC(N2Cc3cc(CN4CCC(c5ncnc6sc(-c7ccccc7)cc56)CC4)ccc3C2=O)C(=O)N1 (stereo not drawn) [GT-05159, 3-(1-oxo-5-((4-(6-phenylthieno[2,3-d]pyrimidin-4-yl)piperidin-1-yl)methyl)isoindolin-2-yl)piperidine-2,6-dione] was tested, and the “IKZF 1 substrate protein remaining %” value [1, 8] was “A (0% ≤ substrate protein remaining % ≤ 80%)”, the “GSPT1 substrate protein remaining %” value [2, 8] was “A (0% ≤ substrate protein remaining % ≤ 80%)” and the IC50 [3] was under 500 nM. For the same molecule, the “IKZF3 substrate protein remaining %” value [4, 8] was “A (0% ≤ substrate protein remaining % ≤ 80%)”, the “IKZF2 substrate protein remaining %” value [5, 8] was “A (0% ≤ substrate protein remaining % ≤ 80%)” and the “Weel substrate protein remaining %” value [6, 8] was “B (80%< substrate protein remaining %≤ 100%)”. For the same molecule, the “CK1a substrate protein remaining %” value [7, 8] was “B (80%< substrate protein remaining %≤ 100%)”.
In the case of O=C1CCC(N2Cc3cc(CN4CCN(c5ncnc6sc7c(c56)CCCC7)CC4)ccc3C2=O)C(=O)N1 (stereo not drawn) [GT-05209, 3-(1-oxo-5-((4-(5,6,7,8-tetrahydrobenzo[4,5]thieno[2,3-d]pyrimidin-4-yl)piperazin-1-yl)methyl)isoindolin-2-yl)piperidine-2,6-dione], the “IKZF 1 substrate protein remaining %” value [1, 8] is reported as “A (0% ≤ substrate protein remaining % ≤ 80%)”, the “GSPT1 substrate protein remaining %” value [2, 8] is reported as “B (80%< substrate protein remaining %≤ 100%)” and the IC50 [3] is reported as under 500 nM. For the same molecule, the “IKZF3 substrate protein remaining %” value [4, 8] was “A (0% ≤ substrate protein remaining % ≤ 80%)”, the “IKZF2 substrate protein remaining %” value [5, 8] was “A (0% ≤ substrate protein remaining % ≤ 80%)” and the “Weel substrate protein remaining %” value [6, 8] was “A (0% ≤ substrate protein remaining % ≤ 80%)”. For the same molecule, the “CK1a substrate protein remaining %” value [7, 8] was “B (80%< substrate protein remaining %≤ 100%)”.
For Cc1nc(C2CCN(Cc3ccc4c(c3)CN(C3CCC(=O)NC3=O)C4=O)CC2)c2c3c(sc2n1)CCC3 (stereo not drawn) [GT-05210, 3-(5-((4-(2-methyl-6,7-dihydro-5H-cyclopenta[4,5]thieno[2,3-d]pyrimidin-4-yl)piperidin-1-yl)methyl)-1-oxoisoindolin-2-yl)piperidine-2,6-dione], the “IKZF 1 substrate protein remaining %” value [1, 8] was “A (0% ≤ substrate protein remaining % ≤ 80%)”, the “GSPT1 substrate protein remaining %” value [2, 8] was “B (80%< substrate protein remaining %≤ 100%)” and the IC50 [3] was 500 to 1000 nM. The “IKZF3 substrate protein remaining %” value [4, 8] was “A (0% ≤ substrate protein remaining % ≤ 80%)”, the “IKZF2 substrate protein remaining %” value [5, 8] was “A (0% ≤ substrate protein remaining % ≤ 80%)” and the “Weel substrate protein remaining %” value [6, 8] was “A (0% ≤ substrate protein remaining % ≤ 80%)”. For the same molecule, the “CK1a substrate protein remaining %” value [7, 8] was “A (0% ≤ substrate protein remaining % ≤ 80%)”.
For O=C1CCC(N2Cc3cc(CN4CCC(c5ncnc6sc7c(c56)CCCC7)CC4)ccc3C2=O)C(=O)N1 (stereo not drawn) [GT-05265, 3-(1-oxo-5-((4-(5,6,7,8-tetrahydrobenzo[4,5]thieno[2,3-d]pyrimidin-4-yl)piperidin-1-yl)methyl)isoindolin-2-yl)piperidine-2,6-dione], the “IKZF 1 substrate protein remaining %” value [1, 8] was “A (0% ≤ substrate protein remaining % ≤ 80%)”, the “GSPT1 substrate protein remaining %” value [2, 8] was “A (0% ≤ substrate protein remaining % ≤ 80%)” and the IC50 [3] was under 500 nM. The “IKZF3 substrate protein remaining %” value [4, 8] was “A (0% ≤ substrate protein remaining % ≤ 80%)”, the “IKZF2 substrate protein remaining %” value [5, 8] was “A (0% ≤ substrate protein remaining % ≤ 80%)” and the “Weel substrate protein remaining %” value [6, 8] was “B (80%< substrate protein remaining %≤ 100%)”. For the same molecule, the “CK1a substrate protein remaining %” value [7, 8] was “A (0% ≤ substrate protein remaining % ≤ 80%)”.
In the case of O=C1CCC(N2Cc3cc(CN4CCN(c5nsc6cc(F)ccc56)CC4)ccc3C2=O)C(=O)N1 (stereo not drawn) [GT-05332, 3-(5-((4-(6-fluorobenzo[d]isothiazol-3-yl)piperazin-1-yl)methyl)-1-oxoisoindolin-2-yl)piperidine-2,6-dione], the “IKZF 1 substrate protein remaining %” value [1, 8] is reported as “B (80%< substrate protein remaining %≤ 100%)”, the “GSPT1 substrate protein remaining %” value [2, 8] is reported as “B (80%< substrate protein remaining %≤ 100%)” and the IC50 [3] is reported as under 500 nM. The “IKZF3 substrate protein remaining %” value [4, 8] was “B (80%< substrate protein remaining %≤ 100%)”, the “IKZF2 substrate protein remaining %” value [5, 8] was “A (0% ≤ substrate protein remaining % ≤ 80%)” and the “Weel substrate protein remaining %” value [6, 8] was “B (80%< substrate protein remaining %≤ 100%)”. The “CK1a substrate protein remaining %” value [7, 8] was “B (80%< substrate protein remaining %≤ 100%)”.
For O=C1CCC(N2Cc3cc(CN4CCN(c5nc(N6CCCC6)nc6c5SCC6)CC4)ccc3C2=O)C(=O)N1 (stereo not drawn) [GT-05389, 3-(1-oxo-5-((4-(2-(pyrrolidin-1-yl)-6,7-dihydrothieno[3,2-d]pyrimidin-4-yl)piperazin-1-yl)methyl)isoindolin-2-yl)piperidine-2,6-dione], the “IKZF 1 substrate protein remaining %” value [1, 8] was “A (0% ≤ substrate protein remaining % ≤ 80%)”, the “GSPT1 substrate protein remaining %” value [2, 8] was “B (80%< substrate protein remaining %≤ 100%)” and the IC50 [3] was under 500 nM. The “IKZF3 substrate protein remaining %” value [4, 8] was “B (80%< substrate protein remaining %≤ 100%)”, the “IKZF2 substrate protein remaining %” value [5, 8] was “A (0% ≤ substrate protein remaining % ≤ 80%)” and the “Weel substrate protein remaining %” value [6, 8] was “B (80%< substrate protein remaining %≤ 100%)”. The “CK1a substrate protein remaining %” value [7, 8] was “B (80%< substrate protein remaining %≤ 100%)”.
With O=C1CCC(N2Cc3cc(CN4CCN(c5nc(N6CCC6)nc6c5SCC6)CC4)ccc3C2=O)C(=O)N1 (stereo not drawn) [GT-05900, 3-(5-((4-(2-(azetidin-1-yl)-6,7-dihydrothieno[3,2-d]pyrimidin-4-yl)piperazin-1-yl)methyl)-1-oxoisoindolin-2-yl)piperidine-2,6-dione] the “IKZF 1 substrate protein remaining %” value [1, 9] was “B (80%< substrate protein remaining %≤ 100%)”, the “GSPT1 substrate protein remaining %” value [2, 9] was “B (80%< substrate protein remaining %≤ 100%)” and the IC50 [3] was under 500 nM. For the same molecule, the “IKZF3 substrate protein remaining %” value [4, 9] was “A (0% ≤ substrate protein remaining % ≤ 80%)”, the “IKZF2 substrate protein remaining %” value [5, 9] was “A (0% ≤ substrate protein remaining % ≤ 80%)” and the “Weel substrate protein remaining %” value [6, 9] was “B (80%< substrate protein remaining %≤ 100%)”. For the same molecule, the “CK1a substrate protein remaining %” value [7, 9] was “B (80%< substrate protein remaining %≤ 100%)”.
O=C1CCC(N2C(=O)c3ccc(CN4CCN(c5cccs5)CC4)cc3C2=O)C(=O)N1 (stereo not drawn) [GT-06212, 2-(2,6-dioxopiperidin-3-yl)-5-((4-(thiophen-2-yl)piperazin-1-yl)methyl)isoindoline-1,3-dione] was tested, and the “IKZF 1 substrate protein remaining %” value [1, 9] was “B (80%< substrate protein remaining %≤ 100%)”, the “GSPT1 substrate protein remaining %” value [2, 9] was “A (0% ≤ substrate protein remaining % ≤ 80%)” and the IC50 [3] was under 500 nM. For the same molecule, the “IKZF3 substrate protein remaining %” value [4, 9] was “B (80%< substrate protein remaining %≤ 100%)”, the “IKZF2 substrate protein remaining %” value [5, 9] was “A (0% ≤ substrate protein remaining % ≤ 80%)” and the “Weel substrate protein remaining %” value [6, 9] was “B (80%< substrate protein remaining %≤ 100%)”. For the same molecule, the “CK1a substrate protein remaining %” value [7, 9] was “B (80%< substrate protein remaining %≤ 100%)”.
Cc1ccc(N2CCN(Cc3ccc4c(c3)C(=O)N(C3CCC(=O)NC3=O)C4=O)CC2)s1 (stereo not drawn) [GT-06213, 2-(2,6-dioxopiperidin-3-yl)-5-((4-(5-methylthiophen-2-yl)piperazin-1-yl)methyl)isoindoline-1,3-dione] was tested, and the “IKZF 1 substrate protein remaining %” value [1, 9] was “B (80%< substrate protein remaining %≤ 100%)”, the “GSPT1 substrate protein remaining %” value [2, 9] was “A (0% ≤ substrate protein remaining % ≤ 80%)” and the IC50 [3] was 1500 to 1900 nM. The “IKZF3 substrate protein remaining %” value [4, 9] was “B (80%< substrate protein remaining %≤ 100%)”, the “IKZF2 substrate protein remaining %” value [5, 9] was “A (0% ≤ substrate protein remaining % ≤ 80%)” and the “Weel substrate protein remaining %” value [6, 9] was “B (80%< substrate protein remaining %≤ 100%)”. The “CK1a substrate protein remaining %” value [7, 9] was “B (80%< substrate protein remaining %≤ 100%)”.
For O=C1CCC(N2C(=O)c3ccc(CN4CCN(c5ccsc5)CC4)cc3C2=O)C(=O)N1 (stereo not drawn) [GT-06215, 2-(2,6-dioxopiperidin-3-yl)-5-((4-(thiophen-3-yl)piperazin-1-yl)methyl)isoindoline-1,3-dione], the “IKZF 1 substrate protein remaining %” value [1, 9] was “B (80%< substrate protein remaining %≤ 100%)”, the “GSPT1 substrate protein remaining %” value [2, 9] was “B (80%< substrate protein remaining %≤ 100%)” and the IC50 [3] was 500 to 1000 nM. For the same molecule, the “IKZF3 substrate protein remaining %” value [4, 9] was “A (0% ≤ substrate protein remaining % ≤ 80%)”, the “IKZF2 substrate protein remaining %” value [5, 9] was “B (80%< substrate protein remaining %≤ 100%)” and the “Weel substrate protein remaining %” value [6, 9] was “A (0% ≤ substrate protein remaining % ≤ 80%)”. For the same molecule, the “CK1a substrate protein remaining %” value [7, 9] was “A (0% ≤ substrate protein remaining % ≤ 80%)”.
